In patent US9115137B2, “2,3,4,5-tetrahydro-1H-pyrido[4,3-B]indole compounds and methods of use thereof” (priority 2008, dated 2015):

Experiments:
[1] = target: T1, human recombinant histamine H1 receptor (Homo sapiens, UniProt P35367); test: Histamine H1 radioligand binding ([3H]Pyrilamine); conditions: compound at 1 μM; CHO cells; read-out: Histamine Binding (1 μM) H1, percent inhibition of specific binding
T1 construct: expressed in transfected cells; host or cells: CHO cells
Procedure: To evaluate in radioligand binding assays the activity of compounds of the invention, human recombinant histamine H1 receptor expressed in Chinese hamster ovary (CHO) cells (De Backer, M. D. et al., Biochem. Biophys. Res. Comm. 197(3):1601, 1993) in a modified Tris-HCl buffer (50 mM Tris-HCl, pH 7.4, 2 mM MgCl2, 100 mM NaCl, 250 mM Sucrose) was used. Compounds of the invention were incubated with 1.2 nM [^3H]Pyrilamine for 180 minutes at 25° C. Non-specific binding was estimated in the presence of 1 μM pyrilamine. Receptor proteins were filtered and washed, the filters were then counted to determine [^3H]Pyrilamine specifically bound. Compounds were screened at 1 μM, using 1% DMSO as vehicle. Biochemical assay results are presented as the percent inhibition of specific binding in Table 5.

[2] = target: T2, human recombinant adrenergic α1D receptor (Homo sapiens, UniProt P25100); test: Adrenergic α1D radioligand binding ([3H]Prozosin); conditions: compound at 1 μM; HEK-293 cells; read-out: Adrenergic (1 μM) α1D, percent inhibition of specific binding
T2 construct: expressed in transfected cells; host or cells: HEK-293 cells
T2 sequence (P25100 1-572): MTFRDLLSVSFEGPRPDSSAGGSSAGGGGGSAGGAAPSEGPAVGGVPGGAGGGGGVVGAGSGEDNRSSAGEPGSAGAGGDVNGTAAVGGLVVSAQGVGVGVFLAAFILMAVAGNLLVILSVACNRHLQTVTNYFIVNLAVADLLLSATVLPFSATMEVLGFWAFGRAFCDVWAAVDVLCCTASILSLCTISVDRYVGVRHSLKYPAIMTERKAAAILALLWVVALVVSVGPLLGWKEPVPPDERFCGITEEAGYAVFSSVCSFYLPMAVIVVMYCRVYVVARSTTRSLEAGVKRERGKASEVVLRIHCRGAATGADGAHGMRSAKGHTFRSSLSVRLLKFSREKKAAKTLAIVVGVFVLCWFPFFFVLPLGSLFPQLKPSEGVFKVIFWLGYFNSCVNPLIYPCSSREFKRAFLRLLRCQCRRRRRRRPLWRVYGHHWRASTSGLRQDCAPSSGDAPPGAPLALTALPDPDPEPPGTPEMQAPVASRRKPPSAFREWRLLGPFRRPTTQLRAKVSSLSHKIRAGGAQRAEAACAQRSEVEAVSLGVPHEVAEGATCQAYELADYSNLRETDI
Procedure: To evaluate in radioligand binding assays the activity of compounds of the invention, human recombinant adrenergic α1D receptor expressed in human embryonic kidney (HEK-293) cells (Kenny, B. A. et al. Br. J. Pharmacol. 115(6):981, 1995) in a 50 mM Tris-HCl buffer, pH 7.4, was used. Compounds of invention were incubated with 0.6 nM [^3H]Prozosin for 60 minutes at 25° C. Non-specific binding was estimated in the presence of 10 μM phentolamine. Receptor proteins were filtered and washed, the filters were then counted to determine [^3H]Prozosin specifically bound. Compounds were screened at 1 μM or lower, using 1% DMSO as vehicle. Biochemical assay results are presented as the percent inhibition of specific binding in Table 6.

[3] = target: T3, human recombinant histamine H2 receptor (Homo sapiens, UniProt P25021); test: Histamine H2 radioligand binding ([125I]aminopotentidine); conditions: compound at 1 μM; CHO K1 cells; read-out: Histamine Binding (1 μM) H2, percent inhibition of specific binding
T3 construct: expressed in transfected cells; host or cells: CHO-K1 cells
T3 sequence (P25021 whole entry): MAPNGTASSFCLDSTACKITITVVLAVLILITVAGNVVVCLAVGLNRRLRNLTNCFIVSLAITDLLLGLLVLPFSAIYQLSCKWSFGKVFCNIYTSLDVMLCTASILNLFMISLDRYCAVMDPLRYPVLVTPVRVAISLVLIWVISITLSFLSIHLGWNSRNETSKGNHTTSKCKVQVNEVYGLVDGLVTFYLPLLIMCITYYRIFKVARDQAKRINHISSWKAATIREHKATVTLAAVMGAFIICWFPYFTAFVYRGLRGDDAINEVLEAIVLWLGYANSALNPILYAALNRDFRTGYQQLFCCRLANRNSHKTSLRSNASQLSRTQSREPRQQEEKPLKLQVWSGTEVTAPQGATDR
Procedure: To evaluate in radioligand binding assays the activity of compounds of the invention, human recombinant histamine H2 receptor expressed in Chinese hamster ovary (CHO) K1 cells (Ruat, M., Proc. Natl. Acad. Sci. USA. 87(5):1658, 1990) in a 50 mM Phosphate buffer, pH 7.4 was used. Compounds of the invention were incubated with 0.1 nM [^125I]aminopotentidine for 120 minutes at 25° C. Non-specific binding was estimated in the presence of 3 μM Tiotidine. Receptor proteins were filtered and washed, the filters were then counted to determine [^125I]Aminopotentidine specifically bound. Compounds were screened at 1 μM, using 1% DMSO as vehicle. Biochemical assay results are presented as the percent inhibition of specific binding in Table 5.

[4] = target: T4, human recombinant serotonin (5-Hydroxytryptamine) 5-HT6 receptor (Homo sapiens, UniProt P50406); test: Serotonin 5-HT6 radioligand binding ([3H]LSD); conditions: compound at 1 μM; HeLa cells; read-out: Serotonin (1 μM) 5-HT6, percent inhibition of specific binding
T4 construct: expressed in transfected cells; host or cells: human HeLa cells
T4 sequence (P50406 whole entry): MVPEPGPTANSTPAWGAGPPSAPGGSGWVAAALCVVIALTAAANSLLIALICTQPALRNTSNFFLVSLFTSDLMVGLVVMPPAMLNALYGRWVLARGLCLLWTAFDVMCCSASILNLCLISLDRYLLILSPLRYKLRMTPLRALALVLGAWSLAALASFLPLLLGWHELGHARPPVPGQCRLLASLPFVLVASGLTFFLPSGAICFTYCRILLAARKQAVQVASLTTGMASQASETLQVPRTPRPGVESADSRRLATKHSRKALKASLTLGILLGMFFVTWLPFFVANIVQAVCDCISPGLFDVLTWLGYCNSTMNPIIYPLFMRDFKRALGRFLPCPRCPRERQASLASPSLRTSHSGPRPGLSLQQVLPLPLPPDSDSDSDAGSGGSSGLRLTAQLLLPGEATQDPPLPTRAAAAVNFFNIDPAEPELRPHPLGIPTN
Procedure: To evaluate in radioligand binding assays the activity of compounds of the invention, human recombinant serotonin (5-Hydroxytryptamine) 5-HT6 receptor expressed in human HeLa cells (Monsma, F. J. Jr. et al., Mol. Pharmacol. 43:320, 1993) in a modified Tris-HCl buffer (50 mM Tris-HCl, pH 7.4, 150 mM NaCl, 2 mM Ascorbic Acid, 0.001% BSA) was used. Compounds of the invention were incubated with 1.5 nM [3H]Lysergic acid diethylamide (LSD) for 120 minutes at 37° C. Non-specific binding was estimated in the presence of 5 μM Serotonin (5-HT). Receptor proteins were filtered and washed, the filters were then counted to determine [3H]LSD specifically bound. Compounds were screened at 1 μM or lower, using 1% DMSO as vehicle. Biochemical assay results are presented as the percent inhibition of specific binding in Table 7.

T1 sequence (P35367 whole entry): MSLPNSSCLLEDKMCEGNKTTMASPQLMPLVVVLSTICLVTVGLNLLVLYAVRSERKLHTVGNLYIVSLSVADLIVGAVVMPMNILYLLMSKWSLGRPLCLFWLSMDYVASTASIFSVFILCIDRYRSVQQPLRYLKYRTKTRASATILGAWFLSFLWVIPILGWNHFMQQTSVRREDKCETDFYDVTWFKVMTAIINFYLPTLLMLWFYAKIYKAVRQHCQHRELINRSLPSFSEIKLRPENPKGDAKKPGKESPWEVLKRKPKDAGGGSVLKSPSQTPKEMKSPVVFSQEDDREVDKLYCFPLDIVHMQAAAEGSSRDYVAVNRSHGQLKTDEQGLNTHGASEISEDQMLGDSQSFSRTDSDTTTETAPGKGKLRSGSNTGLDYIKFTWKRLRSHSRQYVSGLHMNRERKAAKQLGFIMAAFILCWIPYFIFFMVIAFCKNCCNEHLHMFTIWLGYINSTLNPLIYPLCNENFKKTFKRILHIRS

Compound	inhibition at 1 µM [1]	inhibition at 1 µM [2]	inhibition at 1 µM [3]	inhibition at 1 µM [4]
Cc1ccc2c(c1)c1c(n2CCC(=O)NC(C)(C)C)CCN(C)C1 [Compound 28]	21%	58%	18%	47%
Cc1ccc2c(c1)c1c(n2CCC(=O)Nc2ccccc2)CCN(C)C1 [Compound 29]	84%	74%	34%	43%
Cc1ccc2c(c1)c1c(n2CCC(=O)NCC2CCCCC2)CCN(C)C1 [Compound 30, N-(cyclohexylmethyl)-3-(1,2,3,4-tetrahydro-2,8-dimethylpyrido[4,3-b]indol-5-yl)propanamide]	18%	73%	41%	18%
CN1CCc2c(c3cc(Cl)ccc3n2CCC(=O)NC2CCCC2)C1 [Compound 31, 3-(8-chloro-1,2,3,4-tetrahydro-2-methylpyrido[4,3-b]indol-5-yl)-N-cyclopentylpropanamide]	45%	61%	20%	34%
CN1CCc2c(c3cc(Cl)ccc3n2CC(N)=O)C1 [Compound 45, 2-(8-chloro-1,2,3,4-tetrahydro-2-methylpyrido[4,3-b]indol-5-yl)acetamide]	82%	12%	3%	5%
Cc1ccc2c(c1)c1c(n2CCC(N)=O)CCN(C)C1 [Compound 46, 3-(1,2,3,4-tetrahydro-2,8-dimethylpyrido[4,3-b]indol-5-yl)propanamide]	52%	7%	-5%	11%
Cc1ccc2c(c1)c1c(n2CCC(=O)Nc2ccc(F)cc2)CCN(C)C1 [Compound 47, N-(4-fluorophenyl)-3-(1,2,3,4-tetrahydro-2,8-dimethylpyrido[4,3-b]indol-5-yl)propanamide]	90%	80%	53%	63%
CN1CCc2c(c3cc(Cl)ccc3n2CC(=O)N(C)C)C1 [Compound 48, 2-(8-chloro-1,2,3,4-tetrahydro-2-methylpyrido[4,3-b]indol-5-yl)-N,N-dimethylacetamide]	73%	10%	4%	12%
CN1CCc2c(c3cc(Cl)ccc3n2CCC(=O)N(C)C)C1 [Compound 49, 3-(8-chloro-1,2,3,4-tetrahydro-2-methylpyrido[4,3-b]indol-5-yl)-N,N-dimethylpropanamide]	82%	18%	5%	24%
Cc1ccc2c(c1)c1c(n2CCNC(=O)c2ccncc2)CCN(C)C1 [Compound 50, N-(2-(1,2,3,4-tetrahydro-2,8-dimethylpyrido[4,3-b]indol-5-yl)ethyl)isonicotinamide]	47%	37%	9%	-1%
Cc1ccc2c(c1)c1c(n2CC(=O)Nc2ccc(F)cc2)CCN(C)C1 [Compound 51, N-(4-fluorophenyl)-2-(1,2,3,4-tetrahydro-2,8-dimethylpyrido[4,3-b]indol-5-yl)acetamide]	85%	29%	8%	30%
CCCCOC(=O)Cn1c2c(c3cc(Cl)ccc31)CN(C)CC2 [Compound 52, butyl 2-(8-chloro-1,2,3,4-tetrahydro-2-methylpyrido[4,3-b]indol-5-yl)acetate]	98%	58%	23%	83%
Cc1ccc2c(c1)c1c(n2CCC(=O)NC(C)C)CCN(C)C1 [Compound 53]	51%	62%	12%	22%
Cc1ccc2c(c1)c1c(n2CCC(=O)NCc2ccccc2)CCN(C)C1 [Compound 59, N-benzyl-3-(1,2,3,4-tetrahydro-2,8-dimethylpyrido[4,3-b]indol-5-yl)propanamide]	60%	56%	5%	22%
CN1CCc2c(c3cc(Cl)ccc3n2CC(=O)NC2CCCCC2)C1 [Compound 60, 2-(8-chloro-1,2,3,4-tetrahydro-2-methylpyrido[4,3-b]indol-5-yl)-N-cyclohexylacetamide]	50%	22%	3%	22%
Cc1ccc2c(c1)c1c(n2CCNC(=O)C(C)C)CCN(C)C1 [Compound 61, N-(2-(1,2,3,4-tetrahydro-2,8-dimethylpyrido[4,3-b]indol-5-yl)ethyl)isobutyramide]	32%	28%	13%	10%
Cc1ccc2c(c1)c1c(n2CCNC(=O)C2CCCCC2)CCN(C)C1 [Compound 62, N-(2-(1,2,3,4-tetrahydro-2,8-dimethylpyrido[4,3-b]indol-5-yl)ethyl)cyclohexanecarboxamide]	63%	64%	39%	19%
Cc1ccc2c(c1)c1c(n2CCNC(=O)c2ccc(F)cc2Cl)CCN(C)C1 [Compound 63, 2-chloro-4-fluoro-N-(2-(1,2,3,4-tetrahydro-2,8-dimethylpyrido[4,3-b]indol-5-yl)ethyl)benzamide]	86%	56%	35%	31%
Cc1ccc2c(c1)c1c(n2CC(N)=O)CCN(C)C1 [Compound 64, 2-(1,2,3,4-tetrahydro-2,8-dimethylpyrido[4,3-b]indol-5-yl)acetamide]	62%	20%	-3%	5%
Cc1ccc2c(c1)c1c(n2CCNC(=O)C2CCNCC2)CCN(C)C1 [Compound 65, N-(2-(1,2,3,4-tetrahydro-2,8-dimethylpyrido[4,3-b]indol-5-yl)ethyl)piperidine-4-carboxamide]	34%	11%	-7%	3%
